Source: patent publication US9415035B2, “Compositions containing omega-3 oil with an anti-inflammatory agent and uses thereof” (Maine Natural Health Company, Inc., priority 2010, dated 2016)

System: companion animals (cats and dogs)
Test: Companion animal mobility, further addition of glucosamine
Format: in vivo
Set-up: dose or concentration left out as unconfirmed
Conditions: glucosamine added to OmegaMaine omega-3 oil; data not shown
Procedure: Cats (n=5) were given 2.5 mL (½ teaspoon) of OmegaMaine liquid omega-3 oil by adding directly to their food. Dogs (n=5) were given 5 mL (1 teaspoon) of OmegaMaine omega-3 oil by adding directly to their food. For reference, 5 mL of OmegaMaine omega-3 oil contains, minimally, 800 mg of EPA, and, minimally, 750 mg of DHA. Animals were scored on a scale of 1 to 10, where 10 was behavior like a kitten or a puppy and 1 was severe immobility. All animals in the test group average 8 years of age. Animals were evaluated prior to treatment and 2 weeks after daily treatment with OmegaMaine omega-3 oil (Table 4).

## N[C@H]1C(O)O[C@H](CO)[C@@H](O)[C@@H]1O (stereo partly shown) [glucosamine]
  therapeutic benefit on mobility: additional therapeutic benefit
